Several values for one entry are separate records, joined by “and”; a condition that tells them apart may be missing. Equal values may be shown once.
Assays:
[1] = biological target: T1, Estrogen Receptors extracted from MCF-7 cells (Homo sapiens, UniProt P03372); test: Ligand binding competition assay (Estrogen Receptor), [3H]Estradiol
T1 construct: Estrogen Receptors extracted from MCF-7 cells; endogenous in cells; host or cells: MCF-7 (ATCC) cytosol
T1 sequence (P03372 1-595): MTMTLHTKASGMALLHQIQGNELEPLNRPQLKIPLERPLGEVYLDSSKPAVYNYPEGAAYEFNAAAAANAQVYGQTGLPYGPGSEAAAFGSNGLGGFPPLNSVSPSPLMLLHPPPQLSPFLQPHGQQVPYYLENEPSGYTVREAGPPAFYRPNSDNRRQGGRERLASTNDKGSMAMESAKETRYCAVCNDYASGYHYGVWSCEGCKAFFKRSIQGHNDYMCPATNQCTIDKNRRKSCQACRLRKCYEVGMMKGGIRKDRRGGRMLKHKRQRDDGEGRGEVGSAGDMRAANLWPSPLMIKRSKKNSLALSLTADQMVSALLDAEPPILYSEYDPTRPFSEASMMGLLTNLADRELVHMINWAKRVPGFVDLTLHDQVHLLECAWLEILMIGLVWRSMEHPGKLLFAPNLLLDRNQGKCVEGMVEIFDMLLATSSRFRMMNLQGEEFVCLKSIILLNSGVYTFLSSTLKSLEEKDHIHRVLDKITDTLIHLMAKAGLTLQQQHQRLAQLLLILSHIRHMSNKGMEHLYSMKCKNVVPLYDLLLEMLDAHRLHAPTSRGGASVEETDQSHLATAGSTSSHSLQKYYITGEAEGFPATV
Method: Ligand Binding Competition Assay (Estrogen Receptor)
ER binding experiments were conducted using Estrogen Receptors extracted from MCF-7 cells as previously described (4). Briefly MCF-7 (from ATCC) were grown to 80% confluency in DMEM medium (GiBCO BRL) suplemented with 10% FCS. Cells were then scraped, and washed twice with PBS. After centrifugation for 10 minutes at 1500 rpm, the cells were resuspended in TM buffer (20 mM Tris, HCl pH 7.4; sodium molybdate, 20 mM). Cells were broken by freeze-thaw lysis of the cell pellets in an equal volume of TM buffer. Cytosolic receptors were prepared by a 105.000 g×60 minutes centrifugation at 0° C., and then stored at −80° C. This cytosolic receptor solution was diluted to 60% in TM buffer, and then incubated with the corresponding ligand for 18 hr at 4° C. in a volume of 100 μl with 50 μg of protein and 2 nM of [3H]Estradiol and two concentrations (1 and 10 μM) of unlabeled test ligand. Assays were terminated by loading 65 μl of the incubate on a 1.2 ml Sephadex TM LH-20 column equilibrated with the TM buffer. The flow through was collected and counted for radioactivity in ready safe scintillant (Beckman).

[2] = biological target: T2, Aryl Hydrocarbon Receptor (AhR) (Oryctolagus cuniculus, UniProt O02747); test: Ligand binding competition assay (Aryl Hydrocarbon Receptor), [3H]TCDD displacement; design: species or system female New Zealand rabbit (liver cytosol); settings: for AhR RBA (relative binding affinity): resveratrol = 1
T2 construct: from tissue; host or cells: female New Zealand rabbit liver cytosol
T2 sequence (O02747 1-847): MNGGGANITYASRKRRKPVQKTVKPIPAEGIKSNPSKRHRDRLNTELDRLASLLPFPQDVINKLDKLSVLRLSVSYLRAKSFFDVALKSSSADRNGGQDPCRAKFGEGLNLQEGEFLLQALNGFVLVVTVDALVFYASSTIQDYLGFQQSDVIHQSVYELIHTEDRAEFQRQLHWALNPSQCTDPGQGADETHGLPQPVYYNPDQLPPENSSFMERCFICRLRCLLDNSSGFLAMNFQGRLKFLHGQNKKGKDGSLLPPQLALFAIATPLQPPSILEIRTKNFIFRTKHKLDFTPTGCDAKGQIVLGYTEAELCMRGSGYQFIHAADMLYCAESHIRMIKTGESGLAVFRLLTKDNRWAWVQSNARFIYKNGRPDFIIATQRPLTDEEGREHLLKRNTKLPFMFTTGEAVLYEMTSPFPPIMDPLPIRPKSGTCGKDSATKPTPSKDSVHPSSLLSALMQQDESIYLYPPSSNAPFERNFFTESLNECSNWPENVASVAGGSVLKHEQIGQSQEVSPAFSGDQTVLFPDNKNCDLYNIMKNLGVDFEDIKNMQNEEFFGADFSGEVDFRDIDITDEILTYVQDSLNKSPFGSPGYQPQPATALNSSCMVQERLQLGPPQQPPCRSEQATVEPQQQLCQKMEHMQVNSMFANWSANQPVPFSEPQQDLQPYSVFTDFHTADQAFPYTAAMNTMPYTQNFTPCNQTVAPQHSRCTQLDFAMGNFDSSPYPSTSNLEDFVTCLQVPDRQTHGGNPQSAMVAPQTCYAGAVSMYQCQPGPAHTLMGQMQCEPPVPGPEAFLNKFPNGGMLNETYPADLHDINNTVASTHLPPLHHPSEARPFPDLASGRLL
Method: Ligand binding competition assay (Aryl Hydrocarbon Receptor)
Experiments were conducted exactly as previously described by Savouret et al., (3). Briefly, binding competition was performed using female New Zealand rabbit liver cytosol as the receptor source. The cytosol was prepared at 4° C. in Hepes 20 mM pH 7.6, EDTA 1.5 mM, glycerol 10%, β-mercapto-ethanol 10 mM, with Complete protease cocktail (Roche, Meylan, France) by homogenisation in a Ultra-Turax homogenizer (Bioblock Scientific, Illkirch, France) followed with 20 strokes in a Dounce Homogenizer with the tight pestle. The homogenate was centrifuged 30 min at 20,000 g. The supernatant was centrifuged at 105,000 g for 65 min. The cytosol was aliquoted, snap-frozen in liquid nitrogen and kept at −80° C. Cytosol aliquotes (4.5 ml) were thawed on ice, diluted ten-fold in Hepes 20 mM pH 7.6, 5 mM CaCl2, containing Complete protease cocktail and 10 mM mercapto-ethanol, and recentrifuged 30 min. at 105,000 g. The cleared cytosol dilution was adjusted to 0.85 mg proteins/ml. 930 μl of diluted cytosol were preincubated with the desired amounts of unlabeled competitors in ethanol solutions for 1 hour at 4° C. Subsequently, 2,3,7,8-tetrachloro (1,6-3 H) dibenzo-p-dioxin (28 Ci/mmole) was added at 0.2 nM and incubation continued for 3 hours at 4° C. Non-displaceable binding was assessed by incubating the aliquotes with 70 μl of a 2% activated charcoal suspension in Hepes 20 mM pH 7.6 for 90 minutes at 4° C., followed by centrifugation at 15,000 g for 10 minutes. 500 μl of the supernatants were counted in 5 ml of Ultima Gold cocktail (Packard, Meridien, Conn.) in a Beckman liquid scintillation Counter (45% counting efficiency). Binding competition assays were repeated at least twice for each competitor and each point was performed in triplicate.

Row | SMILES | affinity for ER [1] | ER RBA (relative binding affinity) ([1]; trans-stilbenes) | relative binding affinity (RBA) for AhR [2] | AhR RBA (relative binding affinity) ([2]; trans-stilbenes) | melting point | ER RBA (relative binding affinity) ([1]; cis-stilbenes) | AhR RBA (relative binding affinity) ([2]; cis-stilbenes)
1 | Clc1ccc(/C=C/c2cc(Cl)cc(Cl)c2)cc1 [Compound 4b, (E)-1-(4-chlorophenyl)-2-(3,5-dichlorophenyl)-ethene] | without detectable affinity | N.M | 130.0 | 130.0 | – | – | –
2 | COc1ccc(/C=C/c2cc(F)cc(F)c2)cc1 [Compound 4c, (E)-1-(4-methoxyphenyl)-2-(3,5-difluorophenyl)-ethene] | – | N.M | – | 17.5 | 108 to 110 °C | – | –
3 | COc1cc(/C=C/c2ccc(F)cc2)cc(OC)c1 [Compound 4f, (E)-1-(4-fluorophenyl)-2-(3,5-dimethoxyphenyl)-ethene] | – | N.M | – | 32.1 | – | – | –
4 | Fc1ccc(/C=C\c2cc(F)cc(F)c2)cc1 [Compound 5d, (Z)-1-(4-fluorophenyl)-2-(3,5-difluorophenyl)-ethene] | – | – | – | – | – | N.M | 2.6
5 | FC(F)(F)c1ccc(/C=C/c2cc(Cl)cc(Cl)c2)cc1 [Compound 4i, (E)-1-(4-trifluoromethylphenyl)-2-(3,5-dichlorophenyl)-ethene] | – | N.M | – | 791.0 | 98 to 100 °C | – | –
6 | CCOc1ccc(/C=C\c2cc(OC)cc(OC)c2)cc1 [Compound 5g, (Z)-1-(4-ethoxyphenyl)-2-(3,5-dimethoxyphenyl)-ethene] | – | – | – | – | – | N.M | 2.5
7 | Clc1ccc(/C=C\c2cc(Cl)cc(Cl)c2)cc1 [Compound 5b, (Z)-1-(4-chlorophenyl)-2-(3,5-dichlorophenyl)-ethene] | – | – | – | – | – | N.M | 12.4
8 | FC(F)(F)c1ccc(/C=C/c2cc(C(F)(F)F)cc(C(F)(F)F)c2)cc1 [Compound 4e, (E)-1-(4-trifluoromethylphenyl)-2-(3,5-ditrifluoromethylphenyl)-ethene] | without detectable affinity | N.M | 52.1 | 52.1 | 99 to 100 °C | – | –
9 | COc1cc(/C=C\c2ccc(F)cc2)cc(OC)c1 [Compound 5f, (Z)-1-(4-fluorophenyl)-2-(3,5-dimethoxyphenyl)-ethene] | – | – | – | – | – | N.M | 1.7
10 | COc1ccc(/C=C\c2cc(OC)cc(OC)c2)cc1 [Compound 5a, (Z)-1-(4-methoxyphenyl)-2-(3,5-dimethoxyphenyl)-ethene] | – | – | – | – | – | 0.06 | 2.1
11 | CCCCOc1ccc(/C=C/c2cc(OC)cc(OC)c2)cc1 [Compound 4h, (E)-1-(4-butoxyphenyl)-2-(3,5-dimethoxyphenyl)-ethene] | – | N.M | – | 8.1 | 54 to 56 °C | – | –
12 | COc1ccc(/C=C\c2cc(Cl)cc(Cl)c2)cc1 [Compound 5j, (Z)-1-(4-methoxyphenyl)-2-(3,5-dichlorophenyl)-ethene] | – | – | – | – | – | N.M | 13.0
13 | Fc1ccc(/C=C/c2cc(F)cc(F)c2)cc1 [Compound 4d, (E)-1-(4-fluorophenyl)-2-(3,5-difluorophenyl)-ethene] | – | N.M | – | 39.1 | 47 to 48 °C and 47 °C | – | –
14 | FC(F)(F)c1ccc(/C=C\c2cc(C(F)(F)F)cc(C(F)(F)F)c2)cc1 [Compound 5e, (Z)-1-(4-trifluoromethylphenyl)-2-(3,5-ditrifluoromethylphenyl)-ethene] | – | – | – | – | – | N.M | 2.7
15 | CCCCOc1ccc(/C=C\c2cc(OC)cc(OC)c2)cc1 [Compound 5h, (Z)-1-(4-butoxyphenyl)-2-(3,5-dimethoxyphenyl)-ethene] | – | – | – | – | – | N.M | 3.7
16 | CCOc1ccc(/C=C/c2cc(OC)cc(OC)c2)cc1 [Compound 4g, (E)-1-(4-ethoxyphenyl)-2-(3,5-dimethoxyphenyl)-ethene] | – | N.M | – | 39.8 | 54 to 55 °C | – | –
17 | COc1ccc(/C=C/c2cc(OC)cc(OC)c2)cc1 [Compound 4a, (E)-1-(4-methoxyphenyl)-2-(3,5-dimethoxyphenyl)-ethene] | – | 0.03 | – | 21.0 | – | – | –
18 | COc1ccc(/C=C\c2cc(F)cc(F)c2)cc1 [Compound 5c, (Z)-1-(4-methoxyphenyl)-2-(3,5-difluorophenyl)-ethene] | – | – | – | – | – | N.M | 7.2
19 | FC(F)(F)c1ccc(/C=C\c2cc(Cl)cc(Cl)c2)cc1 [Compound 5i, (Z)-1-(4-trifluoromethylphenyl)-2-(3,5-dichlorophenyl)-ethene] | – | – | – | – | – | N.M | 10.9
